Measurements as given in patent US10376520B2, “Methods for the treatment of cardiovascular disorders” (Galapagos NV, priority 2015, dated 2019).

Test system: RA patients
Assay: [HDL] determination, Study 2 (RA patients, monotherapy)
Type: in vivo, human
Conditions: for [HDL] Mean percentage CFB - 12 weeks results / [HDL] Median percentage CFB - 12 weeks results: 50 mg q.d.
From the text: Randomized, double-blind, placebo-controlled, multicenter, phase IIb dose finding study of Compound 1 (dosed as a [Compound 1:HCl:3H2O]) administered for 24 weeks as monotherapy to subjects with moderately to severely active rheumatoid arthritis who have an inadequate response to methotrexate alone
Double-blind, placebo-controlled, monotherapy study in subjects with moderately to severely active RA who have an inadequate response to methotrexate (MTX) (oral or parenteral).
280 subjects randomized to one of 3 doses of Compound 1 (dosed as a [Compound 1:HCl:3H2O]) or to placebo, given once daily (q.d.).
Twelve weeks of treatment with Compound 1 (dosed as a [Compound 1:HCl:3H2O]) at 50 mg, 100 mg, or 200 mg q.d.; or placebo. At Week 12, all subjects on placebo and the subjects on the 50 mg dose who have not achieved 20% improvement in swollen joint count (SJC66) and tender joint count (TJC68) will be assigned to 100 mg q.d. in a blinded fashion and will continue treatment until Week 24. Subjects in the other groups will maintain their randomized treatment until Week 24.
This assay relies on a homogeneous enzymatic colorimetric test. In the presence of magnesium ions, dextran sulfate selectively forms water-soluble complexes with LDL, VLDL and chylomicrons which are resistant to PEG-modified enzymes.
The cholesterol concentration of [HDL]-cholesterol is determined enzymatically by cholesterol esterase and cholesterol oxidase coupled with PEG to the amino groups (approx. 40%).
In the presence of peroxidase, the hydrogen peroxide generated reacts with 4-amino-antipyrine and Sodium N-(2-hydroxy-3-sulfopropyl)-3,5-dimethoxyaniline (HSDA) to form a purple-blue dye. The color intensity of this dye is directly proportional to the cholesterol concentration and is measured photometrically.
Human serum and plasma samples [HDL] determination was done on a Roche/Hitachi Cobas c 701/702 system which automatically calculate the analyte concentration of each sample. Samples containing precipitates are centrifuged before performing the assay.

[1] = 50 mg q.d. non responders switching to 100 mg q.d. at week 12 (N = 15), week 1
[2] = 50 mg q.d. non responders switching to 100 mg q.d. at week 12 (N = 15), week 2
[3] = 50 mg q.d. non responders switching to 100 mg q.d. at week 12 (N = 15), week 4
[4] = 50 mg q.d. non responders switching to 100 mg q.d. at week 12 (N = 15), week 8
[5] = 50 mg q.d. non responders switching to 100 mg q.d. at week 12 (N = 15), week 12
[6] = 50 mg q.d. non responders switching to 100 mg q.d. at week 12 (N = 15), week 16
[7] = 50 mg q.d. non responders switching to 100 mg q.d. at week 12 (N = 15), week 20
[8] = 50 mg q.d. non responders switching to 100 mg q.d. at week 12 (N = 15), week 24
[9] = 50 mg q.d. non responders switching to 100 mg q.d. at week 12, week 1
[10] = 50 mg q.d. non responders switching to 100 mg q.d. at week 12, week 2
[11] = 50 mg q.d. non responders switching to 100 mg q.d. at week 12, week 4
[12] = 50 mg q.d. responders (N = 57), week 1
[13] = 50 mg q.d. responders (N = 57), week 2
[14] = 50 mg q.d. responders (N = 57), week 4
[15] = 50 mg q.d. responders (N = 57), week 8
[16] = 50 mg q.d. responders (N = 57), week 12
[17] = 50 mg q.d. responders (N = 57), week 16
[18] = 50 mg q.d. responders (N = 57), week 20
[19] = 50 mg q.d. responders (N = 57), week 24

O=C(Nc1nc2cccc(-c3ccc(CN4CCS(=O)(=O)CC4)cc3)n2n1)C1CC1 [Compound 1, cyclopropanecarboxylic acid {5-[4-(1,1-dioxo-thiomorpholin-4-ylmethyl)-phenyl]-[1,2,4]triazolo[1,5-a]pyridin-2yl}-amide]
[HDL] Mean CFB (50 mg q.d. (N = 72), week 1): 0.033 mmol/L
[HDL] Median CFB (50 mg q.d. (N = 72), week 1): 0.050 mmol/L
[HDL] Mean CFB (50 mg q.d. (N = 72), week 2): 0.055 mmol/L
[HDL] Median CFB (50 mg q.d. (N = 72), week 2): 0.000 mmol/L
[HDL] Mean CFB (50 mg q.d. (N = 72), week 4): 0.102 mmol/L
[HDL] Median CFB (50 mg q.d. (N = 72), week 4): 0.100 mmol/L
[HDL] Mean CFB (50 mg q.d. (N = 72), week 8): 0.120 mmol/L
[HDL] Median CFB (50 mg q.d. (N = 72), week 8): 0.110 mmol/L
[HDL] Mean CFB (50 mg q.d. (N = 72), week 12): 0.078 mmol/L
[HDL] Median CFB (50 mg q.d. (N = 72), week 12): 0.065 mmol/L
[HDL] Mean CFB - 24 weeks results [1]: 0.08 mmol/L
[HDL] Median CFB - 24 weeks results [1]: 0.05 mmol/L
[HDL] Mean CFB - 24 weeks results [2]: 0.05 mmol/L
[HDL] Median CFB - 24 weeks results [2]: 0.04 mmol/L
[HDL] Mean CFB - 24 weeks results [3]: 0.14 mmol/L
[HDL] Median CFB - 24 weeks results [3]: 0.11 mmol/L
[HDL] Mean CFB - 24 weeks results [4]: 0.09 mmol/L
[HDL] Median CFB - 24 weeks results [4]: 0.10 mmol/L
[HDL] Mean CFB - 24 weeks results [5]: 0.15 mmol/L
[HDL] Median CFB - 24 weeks results [5]: 0.14 mmol/L
[HDL] Mean CFB - 24 weeks results [6]: 0.20 mmol/L
[HDL] Median CFB - 24 weeks results [6]: 0.21 mmol/L
[HDL] Mean CFB - 24 weeks results [7]: 0.21 mmol/L
[HDL] Median CFB - 24 weeks results [7]: 0.25 mmol/L
[HDL] Mean CFB - 24 weeks results [8]: 0.30 mmol/L
[HDL] Median CFB - 24 weeks results [8]: 0.31 mmol/L
[HDL] Mean percentage CFB - 24 weeks results [9]: 5.25%
[HDL] Median percentage CFB - 24 weeks results [9]: 3.68%
[HDL] Mean percentage CFB - 24 weeks results [10]: 4.69%
[HDL] Median percentage CFB - 24 weeks results [10]: 4.17%
[HDL] Mean percentage CFB - 24 weeks results [11]: 10.56%
[HDL] Median percentage CFB - 24 weeks results [11]: 10.14%
[HDL] Mean percentage CFB - 24 weeks results (50 mg q.d. non responders switching to 100 mg q.d. at week 12, week 8): 5.96%
[HDL] Median percentage CFB - 24 weeks results (50 mg q.d. non responders switching to 100 mg q.d. at week 12, week 12): 7.95%
[HDL] Median percentage CFB - 24 weeks results (50 mg q.d. non responders switching to 100 mg q.d. at week 12, week 16): 14.34%
[HDL] Median percentage CFB - 24 weeks results (50 mg q.d. non responders switching to 100 mg q.d. at week 12, week 20): 16.22%
[HDL] Median percentage CFB - 24 weeks results (50 mg q.d. non responders switching to 100 mg q.d. at week 12, week 24): 19.84%
[HDL] Mean CFB - 24 weeks results [12]: 0.02 mmol/L
[HDL] Median CFB - 24 weeks results [12]: 0.04 mmol/L
[HDL] Mean CFB - 24 weeks results [13]: 0.05 mmol/L
[HDL] Median CFB - 24 weeks results [13]: 0.00 mmol/L
[HDL] Mean CFB - 24 weeks results [14]: 0.09 mmol/L
[HDL] Median CFB - 24 weeks results [14]: 0.10 mmol/L
[HDL] Mean CFB - 24 weeks results [15]: 0.13 mmol/L
[HDL] Median CFB - 24 weeks results [15]: 0.14 mmol/L
[HDL] Mean CFB - 24 weeks results [16]: 0.06 mmol/L
[HDL] Median CFB - 24 weeks results [16]: 0.05 mmol/L
[HDL] Mean CFB - 24 weeks results [17]: 0.08 mmol/L
[HDL] Median CFB - 24 weeks results [17]: 0.03 mmol/L
[HDL] Mean CFB - 24 weeks results [18]: 0.11 mmol/L
[HDL] Median CFB - 24 weeks results [18]: 0.08 mmol/L
[HDL] Mean CFB - 24 weeks results [19]: 0.17 mmol/L
[HDL] Median CFB - 24 weeks results [19]: 0.10 mmol/L
[HDL] Mean percentage CFB - 24 weeks results (50 mg q.d. responders, week 1): 1.48%
[HDL] Median percentage CFB - 24 weeks results (50 mg q.d. responders, week 1): 2.78%
[HDL] Mean percentage CFB - 24 weeks results (50 mg q.d. responders, week 2): 4.14%
[HDL] Mean percentage CFB - 24 weeks results (50 mg q.d. responders, week 4): 7.26%
[HDL] Median percentage CFB - 24 weeks results (50 mg q.d. responders, week 4): 8.30%
[HDL] Mean percentage CFB - 24 weeks results (50 mg q.d. responders, week 8): 9.33%
[HDL] Median percentage CFB - 24 weeks results (50 mg q.d. responders, week 8): 8.81%
[HDL] Mean percentage CFB - 24 weeks results (50 mg q.d. responders, week 12): 4.45%
[HDL] Median percentage CFB - 24 weeks results (50 mg q.d. responders, week 12): 4.00%
[HDL] Mean percentage CFB - 24 weeks results (50 mg q.d. responders, week 16): 6.26%
[HDL] Median percentage CFB - 24 weeks results (50 mg q.d. responders, week 16): 2.82%
[HDL] Mean percentage CFB - 24 weeks results (50 mg q.d. responders, week 20): 7.61%
[HDL] Median percentage CFB - 24 weeks results (50 mg q.d. responders, week 20): 5.63%
[HDL] Mean percentage CFB - 24 weeks results (50 mg q.d. responders, week 24): 11.90%
[HDL] Mean percentage CFB - 12 weeks results (week 1): 2.27%
[HDL] Median percentage CFB - 12 weeks results (week 1): 3.23%
[HDL] Mean percentage CFB - 12 weeks results (week 2): 4.26%
[HDL] Median percentage CFB - 12 weeks results (week 2): 0.00%
[HDL] Mean percentage CFB - 12 weeks results (week 4): 7.96%
[HDL] Median percentage CFB - 12 weeks results (week 4): 8.70%
[HDL] Mean percentage CFB - 12 weeks results (week 8): 8.60%
[HDL] Median percentage CFB - 12 weeks results (week 8): 7.00%
[HDL] Mean percentage CFB - 12 weeks results (week 12): 5.77%
[HDL] Median percentage CFB - 12 weeks results (week 12): 4.67%
[HDL] Mean CFB (100 mg q.d. (N = 70), week 1): 0.085 mmol/L
[HDL] Mean CFB - 24 weeks results (100 mg q.d. (N = 70), week 1): 0.09 mmol/L
[HDL] Median CFB (100 mg q.d. (N = 70), week 1): 0.050 mmol/L
[HDL] Median CFB - 24 weeks results (100 mg q.d. (N = 70), week 1): 0.05 mmol/L
[HDL] Mean CFB (100 mg q.d. (N = 70), week 2): 0.131 mmol/L
[HDL] Mean CFB - 24 weeks results (100 mg q.d. (N = 70), week 2): 0.13 mmol/L
[HDL] Median CFB (100 mg q.d. (N = 70), week 2): 0.100 mmol/L
[HDL] Median CFB - 24 weeks results (100 mg q.d. (N = 70), week 2): 0.10 mmol/L
[HDL] Mean CFB (100 mg q.d. (N = 70), week 4): 0.194 mmol/L
[HDL] Mean CFB - 24 weeks results (100 mg q.d. (N = 70), week 4): 0.19 mmol/L
[HDL] Median CFB (100 mg q.d. (N = 70), week 4): 0.175 mmol/L
[HDL] Median CFB - 24 weeks results (100 mg q.d. (N = 70), week 4): 0.18 mmol/L
[HDL] Mean CFB (100 mg q.d. (N = 70), week 8): 0.171 mmol/L
